Laboratory results from patent US6878722B2, “Substituted cycloalkyl P1′ hepatitis C virus inhibitors” (Bristol-Myers Squibb Company, priority 2002, dated 2005).
Read-outs that look alike come from different tables or passages of the source.

Tests used:
[1] = biological target: T1, HCV NS3/4A protease complex (BMS strain, genotype 1a) (Hepatitis C virus genotype 1a, UniProt P27958, C1454S); experiment: Recombinant HCV NS3/4A protease complex FRET peptide assay, BMS strain; type: biochemical; conditions: IC50 range, NS3/4A BMS Strain
T1 construct: DNA encoding the recombinant HCV NS3/4A protease complex (amino acids 1027 to 1711) for these strains; inferred from the pET21b vector and Ni-NTA purification; made in house; host or cells: Escherichia coli BL21 (DE3), pET21b
In short: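 Recombinant NS3/4A complex (aa 1027–1711) with C-terminal three-lysine tail, C1711G and C1454S, expressed in E. coli BL21(DE3) and purified by Ni-NTA then Superdex-S200. Inhibition of the complex from each strain measured in vitro by FRET peptide cleavage.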

[2] = tested on: HCV replicon in Huh7 cells; experiment: HCV replicon cell-based assay (FRET); conditions: Hepatitis C virus
In short: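 Huh7 cells stably carrying a genotype 1b HCV replicon (IRES-neo-EMCV-IRES-NS3-NS5B) were treated with compound for 4 days at 37 °C in 0.5% DMSO final. Lysates containing 10 μM FRET peptide RET S1 were read kinetically at 340/490 nm to give NS3 protease activity, from which EC50 was derived.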

[3] = Huh-7, HCV replicon, read-out: EC50 range

T1 sequence (P27958 1658-1714, looked up, stated change not applied): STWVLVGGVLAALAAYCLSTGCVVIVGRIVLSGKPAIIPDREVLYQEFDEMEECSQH
T1 sequence (P27958 1027-1657, looked up, stated change not applied): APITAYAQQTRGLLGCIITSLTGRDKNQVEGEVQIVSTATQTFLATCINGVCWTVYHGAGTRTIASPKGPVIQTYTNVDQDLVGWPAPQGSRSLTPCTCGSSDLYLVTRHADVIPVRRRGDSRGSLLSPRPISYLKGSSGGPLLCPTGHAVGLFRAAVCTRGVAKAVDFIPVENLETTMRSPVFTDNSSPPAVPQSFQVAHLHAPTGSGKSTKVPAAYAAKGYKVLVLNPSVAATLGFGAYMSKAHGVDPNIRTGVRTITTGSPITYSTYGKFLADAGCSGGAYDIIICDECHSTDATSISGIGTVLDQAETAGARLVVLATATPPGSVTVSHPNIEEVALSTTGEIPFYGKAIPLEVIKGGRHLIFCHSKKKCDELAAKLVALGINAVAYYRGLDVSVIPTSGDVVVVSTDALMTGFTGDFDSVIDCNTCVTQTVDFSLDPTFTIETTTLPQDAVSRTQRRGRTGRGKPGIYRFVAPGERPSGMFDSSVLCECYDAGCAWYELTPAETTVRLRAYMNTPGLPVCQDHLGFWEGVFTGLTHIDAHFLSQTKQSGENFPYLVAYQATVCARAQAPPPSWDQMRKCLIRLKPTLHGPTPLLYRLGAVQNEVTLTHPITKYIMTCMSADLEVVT

Compound	IC50 [1] [nM]	EC50 [2, 3] [nM]	EC50 ([2]; Huh-7, read-out: EC50 range) [nM]
C=C[C@@H]1C[C@]1(NC(=O)[C@@H]1C[C@@H](Oc2cc(-c3ccccc3)nc3cc(OC)ccc23)CN1C(=O)[C@@H](NC(=O)OC(C)(C)C)C(C)(C)C)C(=O)NS(=O)(=O)C1(CC(C)C)CC1 [Compound 31, {1-[2-[1-(1-Isobutyl-cyclopropanesulfonylaminocarbonyl)-2-vinyl-cyclopropylcarbamoyl]-4-(7-methoxy-2-phenyl-quinolin-4-yloxy)-pyrrolidine-1-carbonyl]-2,2-dimethyl-propyl}-carbamic acid tert-butyl ester]	< 50	50 to 500	–
C=C[C@@H]1C[C@]1(NC(=O)[C@@H]1C[C@@H](Oc2cc(-c3ccccc3)nc3cc(OC)ccc23)CN1C(=O)[C@@H](NC(=O)OC(C)(C)C)C(C)C)C(=O)NS(=O)(=O)C1(CCOC)CC1 [Compound 53, {1-[2-{1-[1-(2-Methoxy-ethyl)-cyclopropanesulfonylaminocarbonyl]-2-vinyl-cyclopropylcarbamoyl}-4-(7-methoxy-2-phenyl-quinolin-4-yloxy)-pyrrolidine-1-carbonyl]-2-methyl-propyl}-carbamic acid tert-butyl ester]	< 50	< 50	–
C=C[C@@H]1C[C@]1(NC(=O)[C@@H]1C[C@@H](Oc2ccnc3cc(Cl)ccc23)CN1C(=O)[C@@H](NC(=O)OC1CCCC1)C(C)(C)C)C(=O)NS(=O)(=O)C1(CC2CC2)CC1 [Compound 66, (1-{4-(7-Chloro-quinolin-4-yloxy)-2-[1-(1-cyclopropylmethyl-cyclopropanesulfonylaminocarbonyl)-2-vinyl-cyclopropylcarbamoyl]-pyrrolidine-1-carbonyl}-2,2-dimethyl-propyl)-carbamic acid cyclopentyl ester]	< 50	50 to 500	–
C=C[C@@H]1C[C@]1(NC(=O)[C@@H]1C[C@@H](Oc2cc(-c3ccccc3)nc3cc(OC)ccc23)CN1C(=O)[C@@H](NC(=O)OC1(C(=O)OCC)CC1)C(C)(C)C)C(=O)NS(=O)(=O)C1(Cc2ccccc2)CC1 [Compound 81]	50 to 500	–	50 to 500
C=C[C@@H]1C[C@]1(NC(=O)[C@@H]1C[C@@H](Oc2cc(-c3ccccc3)nc3cc(OC)ccc23)CN1C(=O)[C@@H](NC(=O)OC(C)(C)C)C(C)(C)C)C(=O)NS(=O)(=O)C1(I)CC1 [Compound 39, {1-[2-[1-(1-Iodo-cyclopropanesulfonylaminocarbonyl)-2-vinyl-cyclopropylcarbamoyl]-4-(7-methoxy-2-phenyl-quinolin-4-yloxy)-pyrrolidine-1-carbonyl]-2,2-dimethyl-propyl}-carbamic acid tert-butyl ester]	< 50	< 50	–
C=C[C@@H]1C[C@]1(NC(=O)[C@@H]1C[C@@H](Oc2cc(-c3ccccc3)nc3cc(OC)ccc23)CN1C(=O)[C@@H](NC(=O)OC(C)(C)C)C(C)C)C(=O)NS(=O)(=O)C1(CC2CC2)CC1 [Compound 52, {1-[2-[1-(1-Cyclopropylmethyl-cyclopropanesulfonylaminocarbonyl)-2-vinyl-cyclopropylcarbamoyl]-4-(7-methoxy-2-phenyl-quinolin-4-yloxy)-pyrrolidine-1-carbonyl]-2-methyl-propyl}-carbamic acid tert-butyl ester]	< 50	< 50	–
C=C[C@@H]1C[C@]1(NC(=O)[C@@H]1C[C@@H](Oc2cc(-c3ccccc3)nc3cc(OC)ccc23)CN1C(=O)[C@@H](NC(=O)NC(C)(C)C)C(C)(C)C)C(=O)NS(=O)(=O)C1(Cc2ccccc2)CC1 [Compound 62, 1-[2-(3-tert-Butyl-ureido)-3,3-dimethyl-butyryl]-4-(7-methoxy-2-phenyl-quinolin-4-yloxy)-pyrrolidine-2-carboxylic acid [1-(1-benzylcyclopropanesulfonylaminocarbonyl)-2-vinyl-cyclopropyl]-amide]	< 50	50 to 500	–
